From PMC5856786, “A DHODH inhibitor increases p53 synthesis and enhances tumor cell killing by p53 degradation blockage” (Nature Communications, 2018)

Test system: nucleoli in HCT116 cells
Experiment: Immunofluorescence of nucleolin and p53
Type: cell-based
Conditions: Supplementary Fig. 4a
Method: Protein extracts were prepared in 1× LDS sample buffer (Invitrogen) with 100 mM DTT and separated and transferred using the Invitrogen western blotting system except in Supplementary Fig. 1c where the BioRad western blotting system was used. HRP-conjugated secondary antibodies were obtained from Dako (#P016102 and #P0211702) or Santa Cruz (#SC-2020). Immunofluorescence was performed by fixing cells in 4% paraformaldehyde freshly made in PBS for 10 min at 37 °C. Following fixation, cells were permeabilized in 0.15% Triton X-100 for 1–2 min at 37 °C followed by staining with the indicated antibodies. Images were taken using Olympus IX-71 microscope controlled by DeltaVision SoftWoRx. Image stacks were deconvolved, quick-projected and saved as tiff images to be processed using Adobe Photoshop. Antibodies to specific antigens are listed in Supplementary Table 8. All original films for blots in Fig. 1 are shown in Supplementary Figs. 9–12.
Cells were fixed in 4 % paraformaldehyde made in PBS followed by 10 min at 37 °C, permeabilization in 0.15 % Triton X-100 for 1-2 min at 37 °C, and staining with antibodies against nucleolin and p53. Images were taken using Olympus IX-71 microscope controlled by Delta Vision SoftWorx. Image stacks were deconvolved, quick-projected and saved as tiff images to be processed using Adobe PhotoShop. […]
was extracted and quantified. […]

With `O=C(NC1CCCc2c1cnn2-c1ccccc1F)c1ccccn1` (stereo not shown) [HZ00] as the compound, how does the effect on nucleoli read?
The effect on nucleoli was “nucleoli were disrupted”.
